Reference: PMC6271935, “Synthesis and Broad-Spectrum Antiviral Activity of Some Novel Benzo-Heterocyclic Amine Compounds” (Molecules, 2014)
pIC50: −log10 of the molar value. Values joined by “and” are separate entries in the source; they are usually repeats but may differ in a detail not shown here. Equal entries are not always repeated.

How the values were obtained:
Cox B3 = assay: organism not typed; assay type: cell-based, Coxsackie viruses (Cox B3 Nancy strain); details: Vero
HBV = assay: Anti-HBV assay in HepG2.2.15 cells, viral DNA by real time PCR; assay type: cell-based, Hepatitis B virus; details: for pIC50: Hepatitis B virus, HepG2.2.15, 144 h, intracellular viral DNA, 3 + 3 days
Method: The synthesized target compounds were assayed for their broad spectrum antiviral activity towards influenza A, HBV, HCV and Cox B3 virus in vitro. […] The inhibitory activities towards HBV and HCV were tested by real time PCR, and lamivudine (3TC) and teleprevir were used as positive controls, respectively.
The anti-HBV activities of test compounds and a positive control drug were tested in HepG2.2.15 cells. The HepG2.2.15 cells were cultured in 96-well plates and treated with the test compounds at 37 °C for 3 days. The medium was removed, and fresh medium containing the test compounds was added for an additional 3 days. The cells were harvested and intracellular DNA was extracted. The inhibition of viral DNA replication in treated cells versus untreated cells was determined by real time PCR.

HepG2.2.15 cells = assay: Cytotoxicity in HepG2.2.15 cells (CPE); assay type: cell-based, human; details: 3 + 3 days
Method: Cells were cultured for 3 days at 37 °C in a 5% CO2 atmosphere in an incubator, and the medium was replaced with fresh medium containing the test compounds for an additional 3 days. The cells were subsequently monitored by CPE and the TC50 value was calculated using Reed and Muench analysis.

HCV = assay: Anti-HCV assay in Huh7.5 cells, intracellular HCV RNA by real time RT-PCR; assay type: cell-based; details: Hepatitis C virus, 96 h
MDCK cells = assay: Cytotoxicity in MDCK cells (CPE); assay type: cell-based, Canine; details: 48 h, Reed & Muench
Method: (§1) The cytotoxicity of the compounds in MDCK, Vero and HepG2.2.15 cells was monitored via cytopathic effect (CPE) assays. The MDCK and Vero cells (2.5 × 10^4 /well) were plated in a 96-well plate. Following a 24 h hold period, the monolayer of cells was incubated in the presence of various concentrations of the test compounds. […] The TC50 value was calculated using Reed & Muench analysis.

Huh7.5 cells = assay: Cytotoxicity in Huh7.5 cells (MTT); assay type: cell-based, human; details: 96 h
Method: The Huh7.5 cells (1 × 10^4 cells/well) were plated in 96-well plates. Six hours later the culture media was replaced with fresh medium containing the test compounds at various concentrations. Cytotoxicity was evaluated with the 3-(4,5-dimethylthiazol-2-yl)-2,5-diphenyltetrazolium bromide (MTT) assay after 96 h.
Huh7.5 cells were seeded at a density of 3 × 10^4 cells/cm^2. After 24 h of incubation, the cells were infected with an HCV viral stock (approximately 45 IU per cell) and simultaneously treated with Telaprevir, the test compounds, or the solvent control. The culture medium was removed 96 h after inoculation, and the total intracellular RNA and total intracellular proteins were extracted with a Qiagen Kit according to the manufacturer’s instructions. Intracellular HCV RNA was quantified using a one-step real time RT-PCR kit (Invitrogen). Cytotoxicity was tested by the MTT assay, and IC50 values were calculated by the Reed and Muench methods.

[1] = system: Influenza A/hanfang/359/95; assay: microbe, parasite or virus in culture; assay type: cell-based; details: Influenza A virus, MDCK
Vero cells = assay: Cytotoxicity in Vero cells (CPE); details: 48 h, Reed & Muench
Method: as §1

[2] = system: influenza A, HCV, Cox B3 virus and HBV; assay: Broad-spectrum antiviral panel (summary over all four antiviral assays); assay type: cell-based; details: range/approximate value over influenza A, read-out: IC50 over the entire virus panel

C(=C\c1ccccc1)/CNc1ccc2ncsc2c1 [3e, (E)-benzothiazol-6-yl-(3-phenyl-allyl)-amine]
pIC50 (Cox B3): 5.94 | anti-HBV activity (in words) (HBV): did not exhibit any activity | pIC50 (HBV): < 5.25 | TC50 (50% cytotoxic concentration), HBV (HepG2.2.15 cells): 9.62 µM | pIC50 (HCV): 5.01 | TC50 (50% cytotoxic concentration), Influenza A/hanfang/359/95 (MDCK cells): 24.10 µM | TC50 (50% cytotoxic concentration), HCV (Huh7.5 cells): 43.58 µM | pIC50 [1]: 5.07 | TC50 (50% cytotoxic concentration), Cox B3 (Vero cells): 20.05 µM | melting point: 99 to 101 °C

COc1ccccc1/C=C/CNc1ccc2ncsc2c1 [3f, (E)-benzothiazol-6-yl-[3-(2-methoxy-phenyl)-allyl]-amine]
pIC50 (Cox B3): 5.49 | pIC50 (HBV): 5.30 | TC50 (50% cytotoxic concentration), HBV (HepG2.2.15 cells): 28.87 µM | pIC50 [2]: 5.30 to 5.49 and ~5.30 | pIC50 (HCV): 5.30 | TC50 (50% cytotoxic concentration), Influenza A/hanfang/359/95 (MDCK cells): 21.66 µM | TC50 (50% cytotoxic concentration), HCV (Huh7.5 cells): 54.99 µM | pIC50 [1]: 5.38 | TC50 (50% cytotoxic concentration), Cox B3 (Vero cells): 12.48 µM | melting point: 107 to 109 °C

Cc1ccc(CNc2ccc3ncsc3c2)o1 [3g, Benzothiazol-6-yl-(5-methylfuran-2-ylmethyl)-amine]
pIC50 (Cox B3): 5.30 | pIC50 (HBV): 6.15 | TC50 (50% cytotoxic concentration), HBV (HepG2.2.15 cells): 21.48 µM | pIC50 [2]: 4.46 to 6.15 | pIC50 (HCV): 4.46 | TC50 (50% cytotoxic concentration), Influenza A/hanfang/359/95 (MDCK cells): 94.60 µM | TC50 (50% cytotoxic concentration), HCV (Huh7.5 cells): 138.38 µM | pIC50 [1]: 4.58 | TC50 (50% cytotoxic concentration), Cox B3 (Vero cells): 65.57 µM | melting point: 52 to 54 °C

Clc1ccc(CNc2ccc3ncsc3c2)s1 [3i, Benzothiazol-6-yl-(5-chlorothiophen-2-ylmethyl)-amine]
pIC50 (Cox B3): 5.60 | pIC50 (HBV): < 5.25 | TC50 (50% cytotoxic concentration), HBV (HepG2.2.15 cells): 9.62 µM | pIC50 (HCV): 5.01 | TC50 (50% cytotoxic concentration), Influenza A/hanfang/359/95 (MDCK cells): 27.42 µM | TC50 (50% cytotoxic concentration), HCV (Huh7.5 cells): 38.24 µM | pIC50 [1]: 5.47 | TC50 (50% cytotoxic concentration), Cox B3 (Vero cells): 13.18 µM | melting point: 104 to 106 °C

c1ncc(CNc2ccc3ncsc3c2)cn1 [3j, Benzothiazol-6-yl-pyrimidin-5-ylmethyl-amine]
pIC50 (Cox B3): 4.28 | pIC50 (HBV): < 4.78 | TC50 (50% cytotoxic concentration), HBV (HepG2.2.15 cells): 28.87 µM | pIC50 (HCV): < 4.18 | TC50 (50% cytotoxic concentration), Influenza A/hanfang/359/95 (MDCK cells): 826.44 µM | TC50 (50% cytotoxic concentration), HCV (Huh7.5 cells): >200 µM | pIC50 [1]: 3.67 | TC50 (50% cytotoxic concentration), Cox B3 (Vero cells): 826.44 µM | melting point: 127 to 129 °C

Cc1ccc(CNc2ccc3nc[nH]c3c2)o1 [4b, (3H-Benzoimidazol-5-yl)-(5-methyl-furan-2-ylmethyl)-amine]
pIC50 (Cox B3): 4.31 | anti-HBV activity (in words) (HBV): complete loss of antiviral activity | pIC50 (HBV): < 4.30 | TC50 (50% cytotoxic concentration), HBV (HepG2.2.15 cells): >50 µM | pIC50 (HCV): 4.61 | TC50 (50% cytotoxic concentration), Influenza A/hanfang/359/95 (MDCK cells): 440.02 µM | TC50 (50% cytotoxic concentration), HCV (Huh7.5 cells): >200 µM | pIC50 [1]: 4.67 | TC50 (50% cytotoxic concentration), Cox B3 (Vero cells): 254.07 µM | melting point: 75 to 77 °C
